US20250082633A1, “COMPOUNDS AND METHODS FOR MODULATING SPLICING” (REMIX THERAPEUTICS INC., priority 2021, published 2025)
Where a name gives a salt, the structure may show the parent alone. Read-outs that look alike come from different tables or passages of the source.

Experiments:
MYB mRNA = assay: RT-qPCR splicing assay, MYB canonical (CJ) and alternative (AJ) junction mRNA; assay type: cell-based; settings: Homo sapiens; for IC50: read-out: MYB CJ IC50; for AC50: read-out: MYB AJ AC50
Procedure: (§1) Compounds described herein were used to modulate RNA transcript abundance in cells. The expression of a target mRNA was measured by detecting the formation of an exon-exon junction in the canonical transcript (CJ). A compound mediated exon-inclusion event was detected by observing an increase in formation of a new junction with an alternative exon (AJ). Real-time qPCR assays were used to detect these splicing switches and interrogate the potency of various compounds towards different target genes. A high-throughput real time quantitative PCR (RT-qPCR) assay was developed to measure these two isoforms of the mRNA (CJ and AJ) for exemplary genes, such as HTT, SMN2, and MYB, together with a control housekeeping gene, GAPDH or GUSB or PPIA, used for normalization. Briefly, the A673 or K562 cell line was treated with various compounds described herein (e.g., compounds of Formula (I)). After treatment, the levels of the HTT, MYB, or SMN2 mRNA targets were determined from each sample of cell lysate by cDNA synthesis followed by qPCR.
(§2) • Cells-to-CT 1-step kit: ThermoFisher A25602, Cells-to-CT lysis reagent: ThermoFisher 4391851C, TaqMan™ Fast Virus 1-Step Master Mix: ThermoFisher 4444436 • GAPDH: VIC-PL, ThermoFisher 4326317E (Assay: Hs99999905_m1)—used for K562/suspension cell lines • GUSB: VIC-PL, ThermoFisher 4326320E (Assay: Hs99999908_m1)—used for K562/suspension cell lines • PPIA: VIC-PL, ThermoFisher 4326316E (Assay: Hs99999904_m1)—used for A673/adherent cell lines
(§3) The A673 cell line was cultured in DMEM with 10% FBS. Cells were diluted with full growth media and plated in a 96-well plate (15,000 cells in 100 ul media per well). The plate was incubated at 37° C. with 5% CO2 for 24 hours to allow cells to adhere. An 11-point 3-fold serial dilution of the compounds was made in DMSO then diluted in media in an intermediate plate. Compounds were transferred from the intermediate plate to the cell plate with the top dose at a final concentration of 10 uM in the well. Final DMSO concentration was kept at or below 0.25%. The cell plate was returned to the incubator at 37° C. with 5% CO2 for an additional 24 hours.
(§4) The K562 cell line was cultured in IMDM with 10% FBS. For K562, cells were diluted with full growth media and plated in either a 96-well plate (50,000 cells in 50 uL media per well) or a 384-well plate (8,000-40,000 cells in 45 uL media per well). An 11-point 3-fold serial dilution of the compounds were made in DMSO then diluted in media in an intermediate plate. Compound was transferred from the intermediate plate to the cell plate with the top dose at a final concentration of 10 uM in the well. Final DMSO concentration was kept at or below 0.25%. Final volume was 100 uL for 96-well plate and 50 uL for 384-well plate. The cell plate was then placed in an incubator at 37° C. with 5% CO2 for 24 hours.
(§5) The cells were then gently washed with 50 uL-100 uL cold PBS before proceeding to addition of lysis buffer. 30 uL-50 μL of room temperature lysis buffer with DNAse I (and optionally RNAsin) was added to each well. Cells were shaken/mixed thoroughly at room temperature for 5-10 minutes for lysis to take place and then 3 uL-5 μL of room temperature stop solution was added and wells were shaken/mixed again. After 2-5 minutes, the cell lysate plate was transferred to ice for RT-qPCR reaction setup. The lysates could also be frozen at −80° C. for later use.
(§6) In some cases, a direct lysis buffer was used. An appropriate volume of 3× lysis buffer (10 mM Tris, 150 mM NaCl, 1.5%-2.5% Igepal and 0.1-1 U/uL RNAsin, pH 7.4) was directly added to either K562 or A673 cells in media and mixed by pipetting 3 times. The plates were then incubated at room temperature with shaking/rocking for 20-50 minutes to allow for lysis to take place. After this time, the cell lysate plate was transferred to ice to set up for the RT-qPCR reactions. The lysates could also be frozen at −80° C. for later use. […]

HTT mRNA = assay: RT-qPCR splicing assay, HTT canonical (CJ) and alternative (AJ) junction mRNA; assay type: cell-based; settings: Homo sapiens; for IC50: read-out: HTT CJ IC50; for AC50: read-out: HTT AJ AC50
Procedure: as §1, §2, §3, §4, §5, §6

[1] = test system: HiBiT-tagged HTT protein in K562 cells; assay: HiBit protein abundance assay, HTT; assay type: cell-based, human; settings: K562 HiBiT-modified cells, 24 hours, luminescence
Procedure: Compounds described herein were used to screen for effects on quantitative protein abundance using a HiBit assay system (Promega). Quantitative protein abundance was determined by measuring the protein levels of HiBit-tagged protein targets expressed in cell culture via luminescence using the Nano-Glo HiBiT Lytic Detection System, which uses a split complementation assay format to reconstitute NanoBiT enzyme to generate a luminescent signal. A protein abundance assay was developed such that endogenous protein targets could be modified with the HiBiT peptide tag and their abundance could be assessed after compound treatment. Briefly, K562 cell lines containing a HiBiT-modification were treated with various compounds described herein (e.g., compounds of Formulas (I), (II), or (III)). After treatment for 24 hours, the protein abundance of a specific target was determined by measuring luminescence. • Promega Nano-Glo HiBiT Lytic Detection System (cat #N3030) • Corning 384-well TC-treated microplates (cat #3570) • Synthego Engineered Cells Knock-In Clones [table] Cells were maintained in IMDM with 10% FBS. Before the assay, cells were diluted with phenolphthalein-free growth media (IMDM+1% FBS media) and were seeded in a 384-well plate at a density of 10000 cells/well (for each cell line listed in Table 6). Each compound was prepared as a 10-point 3-fold serial dilution in DMSO with the top dose at a final concentration of 10 μM in the well. Unmodified K562 cells were added at the previously specified density with DMSO to serve as an assay baseline and positive control (PC) and DMSO only with the respective modified cell lines was added to the negative control (NC) columns. Final DMSO concentration was kept at or below 0.25%. Treated cell plates were placed in an incubator at 37° C. with 5% CO2 for 24 hours. After 24 hours, 25 μL of Complete HiBit Lytic reagent was added to each well at room temperature (e.g. one plate requiring 10 mL Lytic Buffer, 100 μL LgBiT Protein, 200 μL Lytic Substrate), shaken for 5 minutes at 600 RPM, then left to sit for 10 minutes for signal to stabilize before reading on a Spark Cyto plate reader (Tecan) with a 500 ms measurement time. To determine compound effects on protein abundance of each target in Table 6, the percent response for each respective cell line was calculated at each compound concentration as follows: For the normalized response at each concentration, a four-parameter logistical regression was fit to the data and the response was interpolated at the 50% value to determine a concentration for protein abundance at 50% (IC50) the untreated control.

[2] = decrease in CJ mRNA levels, larger panel of genes, Table 3
[3] = decrease in canonical junction mRNA, A673 or K562 cells, 24 hours treatment, Table 2
[4] = increase in alternative junction mRNA, A673 or K562 cells, 24 hours treatment, Table 2

IC50 (MYB mRNA; [2]) [µM]	IC50 (MYB mRNA; [3]) [µM]	IC50 (HTT mRNA; [2]) [µM]	IC50 (HTT mRNA; [3]) [µM]	IC50 [1] [µM]	Structure (SMILES)	AC50 (MYB mRNA; [4]) [µM]	AC50 (HTT mRNA; [4]) [µM]	AC50 (MYB mRNA; 24 h) [µM]	IC50 (MYB mRNA; 24 h) [µM]	IC50 (MYB mRNA) [µM]	AC50 (HTT mRNA; 24 h) [µM]	IC50 (HTT mRNA; 24 h) [µM]	IC50 (HTT mRNA) [µM]
0.1 to 1	0.1 to 1	< 0.1	< 0.1	< 0.1	Cc1cn2cc(-c3cc(F)c4nn(C5CCNCC5)cc4c3)cc(Cl)c2n1 [Compound 127, 5-(8-chloro-2-methylimidazo[1,2-a]pyridin-6-yl)-7-fluoro-2-(piperidin-4-yl)-2H-indazole hydrochloride salt]	0.1 to 1	0.1 to 1						
0.1 to 1	0.1 to 1	0.1 to 1	0.1 to 1	0.1 to 1	Cn1cc2cc(-c3ccc4nn(C5CCNCC5)cc4n3)c(O)c(F)c2n1 [Compound 107, 7-fluoro-2-methyl-5-[2-(4-piperidyl)pyrazolo [4,3-b]pyridin-5-yl]indazol-6-ol]	0.1 to 1	0.1 to 1						
0.1 to 1	0.1 to 1	0.1 to 1	0.1 to 1	< 0.1	Cc1cn2cc(-c3cc(F)c4nn(C5CCNCC5)cc4c3)cc(C)c2n1 [Compound 125, 5-(2,8-dimethylimidazo[1,2-a]pyridin-6-yl)-7-fluoro-2-(4-piperidyl)indazole]	0.1 to 1	0.1 to 1						
> 10	> 10	> 10	> 10	1 to 10	Fc1cc(-c2ccc3ccncc3c2)cc2cn(C3CCNCC3)nc12 [Compound 158, 7-[7-fluoro-2-(4-piperidyl)indazol-5-yl]isoquinoline]	> 10	> 10						
> 10	> 10	1 to 10	1 to 10	1 to 10	Cc1cc(-n2cc3cc(C4CCNCC4)cc(F)c3n2)cc2cn(C)nc12 [Compound 115, 2-(2,7-dimethylindazol-5-yl)-7-fluoro-5-(4-piperidyl)indazole]	1 to 10	1 to 10						
0.1 to 1	0.1 to 1	0.1 to 1	0.1 to 1	0.1 to 1	Cn1cc2cc(-c3ccc4nn(C5CCNCC5)cc4c3)cc(F)c2n1 [Compound 105, 7-fluoro-2-methyl-5-[2-(4-piperidyl)indazol-5-yl]indazole]	1 to 10	0.1 to 1						
0.1 to 1	0.1 to 1	< 0.1	< 0.1	< 0.1	Cc1cn2nc(-c3cc(F)c4nn([C@@H]5CCNC[C@H]5F)cc4c3)cc(C)c2n1 [Compound 168, 6-(7-fluoro-2-((3R,4R)-3-fluoropiperidin-4-yl)-2H-indazol-5-yl)-2,8-dimethylimidazo [1,2-b]pyridazine]	0.1 to 1	0.1 to 1						
0.1 to 1	0.1 to 1	< 0.1	< 0.1	< 0.1	Cc1cn2nc(-c3cc(F)c4nn(C5CCNC6(CC6)C5)cc4c3)cc(C)c2n1 (centres unmarked) [Compound 171, 6-[2-(4-azaspiro[2.5]octan-7-yl)-7-fluoro-indazol-5-yl]-2,8-dimethyl-imidazo[1,2-b]pyridazine]	0.1 to 1	< 0.1						
> 10	> 10	1 to 10	1 to 10	1 to 10	Cn1cc2cc(-c3ccc4cn(C5CCNCC5)nc4c3)cc(F)c2n1 [Compound 148, 7-fluoro-2-methyl-5-[2-(4-piperidyl)indazol-6-yl]indazole]	> 10	> 10						
0.1 to 1	0.1 to 1	0.1 to 1	0.1 to 1	< 0.1	Cc1nc2ccc(-c3cc(F)c4nn(C5CCNCC5)cc4c3)cc2o1 [Compound 135, 6-[7-fluoro-2-(4-piperidyl)indazol-5-yl]-2-methyl-1,3-benzoxazole]	0.1 to 1	0.1 to 1						
0.1 to 1	0.1 to 1	< 0.1	< 0.1		Cc1cn2nc(-c3cc(F)c4nn(CC5CCNCC5)cc4c3)cc(C)c2n1 [Compound 212, 6-[7-fluoro-2-(4-piperidylmethyl)indazol-5-yl]-2,8-dimethyl-imidazo[1,2-b]pyridazine]	0.1 to 1	< 0.1						

Structure (SMILES)	IC50 (MYB mRNA; [2]) [µM]	IC50 (MYB mRNA; [3]) [µM]	IC50 (HTT mRNA; [2]) [µM]	IC50 (HTT mRNA; [3]) [µM]	IC50 [1] [µM]	AC50 (MYB mRNA; [4]) [µM]	AC50 (HTT mRNA; [4]) [µM]	AC50 (MYB mRNA; 24 h) [µM]	IC50 (MYB mRNA; 24 h) [µM]	IC50 (MYB mRNA) [µM]	AC50 (HTT mRNA; 24 h) [µM]	IC50 (HTT mRNA; 24 h) [µM]	IC50 (HTT mRNA) [µM]
Cc1cn2nc(-c3cc(F)c4nn(C5CCN(C6CCC6)C6(CC6)C5)cc4c3)cc(C)c2n1 (centres unmarked) [Compound 186, 6-[2-(4-cyclobutyl-4-azaspiro[2.5]octan-7-yl)-7-fluoro-indazol-5-yl]-2,8-dimethyl-imidazo[1,2-b]pyridazine]					< 0.1			0.1 to 1	0.1 to 1	0.1 to 1	< 0.1	< 0.1	< 0.1
